In ChEMBL document CHEMBL5661967, “Antitumor activity of HKI-272, an orally active, irreversible inhibitor of the HER-2 tyrosine kinase” (Cancer Res, 2004):
Calls of active or inactive are those of the source. No cut-off for these calls is given here.

Tests used:
[1] = molecular target: RAC-alpha serine/threonine-protein kinase (Homo sapiens, UniProt P31749); experiment: Inhibition of recombinant AKT (unknown origin) using peptide as substrate
[2] = molecular target: Cyclin-dependent kinase 2/cyclin E1 (Homo sapiens, UniProt P24941); experiment: Inhibition of recombinant CDK2/cyclin E (unknown origin) using protein as substrate; format: protein-complex assay
[3] = molecular target: Inhibitor of nuclear factor kappa-B kinase subunit beta (Homo sapiens, UniProt O14920); experiment: Inhibition of recombinant IKK-2 (unknown origin) using peptide as substrate
Chain of Inhibitor of nuclear factor kappa-B kinase subunit beta (O14920 whole entry): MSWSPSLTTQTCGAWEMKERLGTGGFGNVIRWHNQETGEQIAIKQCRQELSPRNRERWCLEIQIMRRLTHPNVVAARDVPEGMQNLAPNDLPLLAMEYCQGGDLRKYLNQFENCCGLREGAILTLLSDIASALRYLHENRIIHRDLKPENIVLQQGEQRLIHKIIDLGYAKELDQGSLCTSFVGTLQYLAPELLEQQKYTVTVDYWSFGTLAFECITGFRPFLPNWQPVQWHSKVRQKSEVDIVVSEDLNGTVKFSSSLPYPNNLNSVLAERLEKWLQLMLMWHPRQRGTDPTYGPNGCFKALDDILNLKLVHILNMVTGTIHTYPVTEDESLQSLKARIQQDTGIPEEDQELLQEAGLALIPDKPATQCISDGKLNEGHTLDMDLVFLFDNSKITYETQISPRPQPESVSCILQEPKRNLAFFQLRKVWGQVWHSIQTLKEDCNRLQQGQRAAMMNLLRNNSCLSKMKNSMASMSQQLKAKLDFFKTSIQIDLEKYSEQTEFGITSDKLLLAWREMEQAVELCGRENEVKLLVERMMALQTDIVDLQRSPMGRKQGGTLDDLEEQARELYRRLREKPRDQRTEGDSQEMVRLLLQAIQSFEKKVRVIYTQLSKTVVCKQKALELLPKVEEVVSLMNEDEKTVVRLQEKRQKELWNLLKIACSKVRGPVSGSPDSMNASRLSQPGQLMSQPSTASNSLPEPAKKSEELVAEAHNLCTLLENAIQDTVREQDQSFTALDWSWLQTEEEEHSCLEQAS

[4] = molecular target: Vascular endothelial growth factor receptor 2 (Homo sapiens, UniProt P35968); experiment: Inhibition of recombinant KDR (unknown origin) using poly[Glu:Tyr] (4:1) as substrate
Chain of Vascular endothelial growth factor receptor 2 (P35968 whole entry): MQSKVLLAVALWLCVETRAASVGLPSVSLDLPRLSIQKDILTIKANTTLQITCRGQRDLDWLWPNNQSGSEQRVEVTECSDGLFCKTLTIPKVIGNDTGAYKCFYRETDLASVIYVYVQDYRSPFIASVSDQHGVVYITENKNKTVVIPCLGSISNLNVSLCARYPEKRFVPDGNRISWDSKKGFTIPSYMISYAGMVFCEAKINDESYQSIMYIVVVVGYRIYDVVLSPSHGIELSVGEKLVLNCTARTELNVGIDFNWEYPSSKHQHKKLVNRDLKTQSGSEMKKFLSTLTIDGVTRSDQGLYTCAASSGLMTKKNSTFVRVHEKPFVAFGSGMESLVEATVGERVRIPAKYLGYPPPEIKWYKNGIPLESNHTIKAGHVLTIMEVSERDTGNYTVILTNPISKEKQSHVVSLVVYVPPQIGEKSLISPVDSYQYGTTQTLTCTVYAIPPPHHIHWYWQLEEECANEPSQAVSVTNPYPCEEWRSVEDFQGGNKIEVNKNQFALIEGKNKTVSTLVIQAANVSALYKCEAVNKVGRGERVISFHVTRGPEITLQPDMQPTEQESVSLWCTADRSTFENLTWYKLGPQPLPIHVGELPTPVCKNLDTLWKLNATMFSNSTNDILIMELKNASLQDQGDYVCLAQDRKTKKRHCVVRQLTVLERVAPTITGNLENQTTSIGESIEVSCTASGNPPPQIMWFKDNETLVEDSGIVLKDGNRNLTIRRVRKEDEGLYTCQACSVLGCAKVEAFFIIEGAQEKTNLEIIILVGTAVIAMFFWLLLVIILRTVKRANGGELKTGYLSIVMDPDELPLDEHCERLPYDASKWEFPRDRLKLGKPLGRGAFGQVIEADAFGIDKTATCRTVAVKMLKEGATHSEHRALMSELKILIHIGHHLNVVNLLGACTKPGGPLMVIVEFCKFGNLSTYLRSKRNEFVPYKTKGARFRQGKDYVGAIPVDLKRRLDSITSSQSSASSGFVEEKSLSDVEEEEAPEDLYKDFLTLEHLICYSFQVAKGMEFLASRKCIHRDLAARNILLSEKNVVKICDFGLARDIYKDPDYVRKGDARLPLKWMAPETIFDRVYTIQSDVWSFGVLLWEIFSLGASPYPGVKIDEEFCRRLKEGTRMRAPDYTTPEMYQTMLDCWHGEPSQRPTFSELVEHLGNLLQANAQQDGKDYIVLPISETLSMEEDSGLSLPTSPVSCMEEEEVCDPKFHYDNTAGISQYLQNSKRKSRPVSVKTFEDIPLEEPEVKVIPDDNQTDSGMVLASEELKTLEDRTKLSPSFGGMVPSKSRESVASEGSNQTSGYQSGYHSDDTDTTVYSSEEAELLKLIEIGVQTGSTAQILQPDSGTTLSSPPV

SK-BR-3 = experiment: Antiproliferative activity against human SK-BR-3 cells measured after 2 days by sulforhodamine B assay; format: functional, cell-based; conditions: SK-BR-3, 48 h
[5] = molecular target: T1, Receptor tyrosine-protein kinase erbB-2 (Homo sapiens, UniProt P04626); experiment: Inhibition of HER2 autophosphorylation in human BT-474 cells at 1 uM measured after 3 hrs by Western blot analysis relative to control; format: cell-based
T1 sequence (P04626 whole entry): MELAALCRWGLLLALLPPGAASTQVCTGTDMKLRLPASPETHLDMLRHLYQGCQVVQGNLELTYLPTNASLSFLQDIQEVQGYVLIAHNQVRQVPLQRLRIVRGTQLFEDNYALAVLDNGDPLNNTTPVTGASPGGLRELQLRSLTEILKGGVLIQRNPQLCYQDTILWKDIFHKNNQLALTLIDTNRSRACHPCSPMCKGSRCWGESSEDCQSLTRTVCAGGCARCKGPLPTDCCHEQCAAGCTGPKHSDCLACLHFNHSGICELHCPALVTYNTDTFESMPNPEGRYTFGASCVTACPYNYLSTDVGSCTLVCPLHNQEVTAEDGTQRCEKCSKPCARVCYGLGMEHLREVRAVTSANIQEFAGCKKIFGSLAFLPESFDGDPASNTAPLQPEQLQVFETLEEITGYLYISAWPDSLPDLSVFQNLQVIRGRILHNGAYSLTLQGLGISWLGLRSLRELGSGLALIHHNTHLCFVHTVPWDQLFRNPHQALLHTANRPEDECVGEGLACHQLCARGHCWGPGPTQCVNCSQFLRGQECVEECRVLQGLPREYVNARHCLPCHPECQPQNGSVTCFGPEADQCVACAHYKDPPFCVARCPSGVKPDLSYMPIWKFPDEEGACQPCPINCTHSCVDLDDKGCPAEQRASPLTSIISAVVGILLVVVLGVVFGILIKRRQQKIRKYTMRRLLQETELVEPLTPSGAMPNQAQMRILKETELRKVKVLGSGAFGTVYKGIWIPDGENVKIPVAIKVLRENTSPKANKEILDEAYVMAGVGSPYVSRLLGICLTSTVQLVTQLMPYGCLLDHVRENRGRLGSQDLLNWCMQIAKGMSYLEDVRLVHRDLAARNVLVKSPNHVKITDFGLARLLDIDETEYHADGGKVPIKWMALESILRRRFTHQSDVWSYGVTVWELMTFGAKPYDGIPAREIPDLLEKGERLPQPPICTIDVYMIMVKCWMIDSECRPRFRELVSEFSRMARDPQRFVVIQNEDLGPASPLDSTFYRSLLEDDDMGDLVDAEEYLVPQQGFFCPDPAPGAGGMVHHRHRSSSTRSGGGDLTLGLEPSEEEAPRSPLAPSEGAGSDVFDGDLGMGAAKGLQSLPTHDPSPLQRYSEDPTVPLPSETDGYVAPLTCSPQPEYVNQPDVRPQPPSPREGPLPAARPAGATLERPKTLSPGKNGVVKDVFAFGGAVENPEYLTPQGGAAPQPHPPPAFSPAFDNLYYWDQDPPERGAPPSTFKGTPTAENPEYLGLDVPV

[6] = molecular target: Epidermal growth factor receptor (Homo sapiens, UniProt P00533); experiment: Inhibition of EGF-induced EGFR phosphorylation in human A-431 cells at 1 uM incubated for 3 hrs followed by compound washout and further incubated for 5 hrs by Western blot analysis relative to control; format: cell-based
Chain of Epidermal growth factor receptor (P00533 whole entry): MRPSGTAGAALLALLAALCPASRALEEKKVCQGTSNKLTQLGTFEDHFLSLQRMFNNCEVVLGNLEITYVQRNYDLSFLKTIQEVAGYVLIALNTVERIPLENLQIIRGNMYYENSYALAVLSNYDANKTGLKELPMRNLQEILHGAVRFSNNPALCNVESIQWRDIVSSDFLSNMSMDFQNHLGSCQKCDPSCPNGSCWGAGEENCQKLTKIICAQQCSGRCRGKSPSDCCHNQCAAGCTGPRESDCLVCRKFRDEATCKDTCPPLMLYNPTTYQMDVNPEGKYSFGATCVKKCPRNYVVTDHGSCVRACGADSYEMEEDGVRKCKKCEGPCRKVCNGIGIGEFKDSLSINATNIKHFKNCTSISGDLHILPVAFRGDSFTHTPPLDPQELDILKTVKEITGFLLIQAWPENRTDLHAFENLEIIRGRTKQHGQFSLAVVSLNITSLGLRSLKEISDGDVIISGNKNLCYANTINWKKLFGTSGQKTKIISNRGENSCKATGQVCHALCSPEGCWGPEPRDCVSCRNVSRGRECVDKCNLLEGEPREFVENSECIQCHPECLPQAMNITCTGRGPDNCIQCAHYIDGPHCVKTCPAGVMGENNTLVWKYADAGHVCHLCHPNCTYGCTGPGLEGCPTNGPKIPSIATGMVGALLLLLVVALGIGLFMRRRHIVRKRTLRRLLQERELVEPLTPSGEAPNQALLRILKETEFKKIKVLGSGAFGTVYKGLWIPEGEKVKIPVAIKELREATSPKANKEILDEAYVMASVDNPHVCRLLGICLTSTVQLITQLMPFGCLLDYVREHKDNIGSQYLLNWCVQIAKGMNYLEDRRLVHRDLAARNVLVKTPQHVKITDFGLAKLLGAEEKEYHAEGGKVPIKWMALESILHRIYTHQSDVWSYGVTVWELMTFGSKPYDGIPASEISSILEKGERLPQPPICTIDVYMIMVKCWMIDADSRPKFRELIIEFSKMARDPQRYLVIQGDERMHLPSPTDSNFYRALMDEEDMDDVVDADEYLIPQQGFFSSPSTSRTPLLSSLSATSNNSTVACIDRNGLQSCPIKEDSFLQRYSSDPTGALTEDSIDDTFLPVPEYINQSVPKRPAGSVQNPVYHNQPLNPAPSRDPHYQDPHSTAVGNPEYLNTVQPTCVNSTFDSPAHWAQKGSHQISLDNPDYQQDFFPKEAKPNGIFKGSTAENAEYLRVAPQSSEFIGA

[7] = molecular target: T1, Receptor tyrosine-protein kinase erbB-2; experiment: Inhibition of [14C]HKI-272 binding to HER2 in human BT-474 cells at 5 uM measured after 15 mins by fluorography; format: cell-based
[8] = molecular target: T1, Receptor tyrosine-protein kinase erbB-2; experiment: Binding affinity to HER2 in human […] cells at 1 uM measured after 15 mins by immunoprecipitation assay; format: cell-based; conditions: BT-474
BT-474 [9] = experiment: Cell cycle arrest in human BT-474 cells assessed as down regulation of cyclin D1 expression incubated for 12 to 16 hrs by Western blot analysis; format: functional, cell-based
BT-474 [10] = experiment: Cell cycle arrest in human BT-474 cells assessed as down regulation of Rb expression at 1 to 10 nM incubated for 12 to 16 hrs by Western blot analysis; format: functional, cell-based; conditions: dose 1-10 nM, time 12-16 hrs
BT-474 [11] = experiment: Cell cycle arrest in human BT-474 cells assessed as accumulation of cells at Sub-G1 phase at 2 nM measured after 12 to 16 hrs by propidium iodide staining based flow cytometry (reference value: 8%); format: functional; conditions: time 12-16 hrs
BT-474 [12] = experiment: Cell cycle arrest in human BT-474 cells assessed as accumulation of cells at S phase at 0.4 nM measured after 12 to 16 hrs by propidium iodide staining based flow cytometry (reference value: 21%); format: functional; conditions: time 12-16 hrs
BT-474 [13] = experiment: Cell cycle arrest in human BT-474 cells assessed as accumulation of cells at S phase at 2 nM measured after 12 to 16 hrs by propidium iodide staining based flow cytometry (reference value: 21%); format: functional; conditions: time 12-16 hrs
BT-474 [14] = experiment: Cell cycle arrest in human BT-474 cells assessed as accumulation of cells at S phase at 0.2 nM measured after 12 to 16 hrs by BrdUrd uptake assay (reference value: 26%); format: functional; conditions: time 12-16 hrs
BT-474 [15] = experiment: Cell cycle arrest in human BT-474 cells assessed as accumulation of cells at S phase at 1 nM measured after 12 to 16 hrs by BrdUrd uptake assay (reference value: 26%); format: functional; conditions: time 12-16 hrs
BT-474 [16] = experiment: Cell cycle arrest in human BT-474 cells assessed as accumulation of cells at G2/M phase at 0.2 nM measured after 12 to 16 hrs by propidium iodide staining based flow cytometry (reference value: 11%); format: functional; conditions: time 12-16 hrs
NIH3T3 [17] = experiment: Antitumor activity against mouse 3T3 cells transfected with HER-2 oncogene implanted in po dosed athymic nude mouse assessed as tumor growth inhibition administered daily for 10 days via gavage and measured on day 21; format: functional, organism-based; conditions: dose 20-80 mg/kg, time 21.0 day
NIH3T3 [18] = experiment: Antitumor activity against mouse 3T3 cells transfected with HER-2 oncogene implanted in athymic nude mouse assessed as tumor growth inhibition at 80 mg/kg, po administered daily for 10 days via gavage and measured on day 21 relative to control; format: functional; conditions: NIH3T3, 504 h, time 21 day, read-out: TGI
BT-474 [19] = experiment: Antitumor activity against human BT-474 cells xenografted in athymic nude mouse assessed as tumor growth inhibition at 10 mg/kg, po administered daily for 20 days via gavage and measured on day 28 relative to control; format: functional; conditions: BT-474, 672 h, time 28 day, read-out: TGI
BT-474 [20] = experiment: Antitumor activity against human BT-474 cells xenografted in athymic nude mouse assessed as tumor growth inhibition at 40 mg/kg, po administered daily for 20 days via gavage and measured on day 28 relative to control; format: functional; conditions: BT-474, 672 h, time 28 day, read-out: TGI
BT-474 [21] = experiment: Antitumor activity against human BT-474 cells xenografted in athymic nude mouse assessed as tumor growth inhibition at 40 mg/kg, po administered daily for 20 days via gavage and measured on day 21 relative to control; format: functional; conditions: BT-474, 504 h, time 21 day, read-out: TGI
[22] = In vivo inhibition of HER2 autophosphorylation in human BT-474 cells xenografted athymic nude mouse at 40 mg/kg, po administered as single dose via gavage measured after 1 hr by immunoblot analysis relative to control; format: functional
[23] = In vivo inhibition of HER2 autophosphorylation in human BT-474 cells xenografted athymic nude mouse at 40 mg/kg, po administered as single dose via gavage measured after 6 hrs by immunoblot analysis relative to control; format: functional
SK-OV-3 = experiment: Antitumor activity against human SK-OV-3 cells xenografted in athymic nude mouse assessed as tumor growth inhibition at 60 mg/kg, po administered daily for 20 days via gavage and measured on day 21 relative to control; format: functional; conditions: SK-OV-3, 504 h, time 21 day, read-out: TGI
A-431 = experiment: Antitumor activity against human A-431 cells xenografted in athymic nude mouse assessed as tumor growth inhibition at 60 mg/kg, po administered daily for 10 days via gavage and measured on day 15 relative to control; format: functional; conditions: A-431, 360 h, time 15 day, read-out: TGI
MCF7 = experiment: Antitumor activity against human MCF7 cells xenografted in athymic nude mouse assessed as tumor growth inhibition up to 80 mg/kg, po administered daily for 20 days via gavage and measured on day 28 relative to control; format: functional; conditions: time 28 day
[24] = Terminal half life in nude mouse at 20 mg/kg, po administered as single dose; format: ADME, organism-based; conditions: in vivo, read-out: beta t1/2 (converted)
[25] = Toxicity in mouse 3T3 cells transfected with HER-2 oncogene implanted athymic nude mouse assessed as body weight loss at 20 to 80 mg/kg, po administered daily for 10 days; format: organism-based, NIH3T3; conditions: in vivo, 240 h, dose 20-80 mg/kg, time 10 day
[26] = Toxicity in human BT-474 cells xenografted athymic nude mouse assessed as body weight loss at 10 to 40 mg/kg, po administered daily via gavage for 20 days; format: organism-based; conditions: in vivo, 480 h, dose 10-40 mg/kg, time 20 day
[27] = Toxicity in human SK-OV-3 cells xenografted athymic nude mouse assessed as body weight loss at 10 to 60 mg/kg, po administered daily via gavage for 20 days; format: organism-based; conditions: in vivo, 480 h, dose 10-60 mg/kg, time 20 day
[28] = Toxicity in human BT-474 cells xenografted athymic nude mouse at 10 to 40 mg/kg, po administered daily via gavage for 20 days; format: organism-based; conditions: in vivo, 480 h, dose 10-40 mg/kg, time 20 day

Chain of RAC-alpha serine/threonine-protein kinase (P31749 whole entry): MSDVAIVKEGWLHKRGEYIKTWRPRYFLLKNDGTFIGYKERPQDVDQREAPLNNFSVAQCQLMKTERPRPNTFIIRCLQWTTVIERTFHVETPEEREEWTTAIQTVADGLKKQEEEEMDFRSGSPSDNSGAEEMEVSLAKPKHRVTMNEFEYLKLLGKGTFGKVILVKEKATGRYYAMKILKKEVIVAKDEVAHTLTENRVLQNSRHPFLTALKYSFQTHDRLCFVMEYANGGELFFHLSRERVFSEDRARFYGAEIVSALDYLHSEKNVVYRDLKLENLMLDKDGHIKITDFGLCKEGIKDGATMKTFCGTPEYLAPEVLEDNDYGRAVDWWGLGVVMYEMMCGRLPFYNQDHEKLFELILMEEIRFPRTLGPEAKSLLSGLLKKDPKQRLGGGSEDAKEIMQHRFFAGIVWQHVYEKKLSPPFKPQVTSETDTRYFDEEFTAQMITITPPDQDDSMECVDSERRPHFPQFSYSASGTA

With `COc1cc2ncc(C#N)c(Nc3ccc(OCc4ccccn4)c(Cl)c3)c2cc1NC(=O)/C=C/CN(C)C` as the molecule, how does the IC50 [1] read?
The IC50 was > 20 µM.

What about the IC50 [2] of the same molecule?
The IC50 was > 18 µM.

And the IC50 [3]?
Its IC50 is > 9 µM.

What about the IC50 [4] of the same molecule?
Its IC50 is 800 nM.

What about the IC50 (SK-BR-3) of the same molecule?
The IC50 was 2 nM.

And the inhibition [5]?
The inhibition was 98%.

And the inhibition [6]?
Its inhibition is 105%.

And the inhibition [7]?
The inhibition was “Active”.

And the Activity [8]?
The Activity was “Active”.

And the IC50 (BT-474 [9])?
Its IC50 is 9 nM.

What about the Activity (BT-474 [10]) of the same molecule?
The Activity was “Active”.

What about the Activity (BT-474 [11]) of the same molecule?
Its Activity is 11%.

And the Activity (BT-474 [12])?
The Activity was 12%.

What about the Activity (BT-474 [13]) of the same molecule?
Its Activity is 12%.

And the Activity (BT-474 [14])?
The Activity was 18%.

What about the Activity (BT-474 [15]) of the same molecule?
The Activity was 12%.

What about the Activity (BT-474 [16]) of the same molecule?
Its Activity is 13%.

And the TGI (NIH3T3 [17])?
Its TGI is “Dose-Dependent Effect”.

And the inhibition in vivo at 80 mg/kg (NIH3T3 [18])?
Its inhibition in vivo at 80 mg/kg is 98%.

What about the inhibition in vivo at 10 mg/kg (BT-474 [19]) of the same molecule?
Its inhibition in vivo at 10 mg/kg is 67%.

And the inhibition in vivo at 40 mg/kg (BT-474 [20])?
Its inhibition in vivo at 40 mg/kg is 93%.

What about the inhibition in vivo at 40 mg/kg (BT-474 [21]) of the same molecule?
Its inhibition in vivo at 40 mg/kg is 88%.

What about the inhibition in vivo at 40 mg/kg [22] of the same molecule?
The inhibition in vivo at 40 mg/kg was 84%.

What about the inhibition in vivo at 40 mg/kg [23] of the same molecule?
The inhibition in vivo at 40 mg/kg was 97%.

And the inhibition in vivo at 60 mg/kg (SK-OV-3)?
The inhibition in vivo at 60 mg/kg was 85%.

And the inhibition in vivo at 60 mg/kg (A-431)?
Its inhibition in vivo at 60 mg/kg is 76%.

What about the TGI (MCF7) of the same molecule?
The TGI was 28%.

What about the half-life [24] of the same molecule?
The half-life was ~240 min.

What about the Activity [25] of the same molecule?
Its Activity is “Non-Toxic”.

What about the Activity [26] of the same molecule?
Its Activity is “Non-Toxic”.

And the Activity [27]?
The Activity was “Non-Toxic”.

What about the Activity [28] of the same molecule?
The Activity was “Non-Toxic”.
